Laboratory results from a melting point compilation (Tetko et al.).

SMILES	melting point [°C]
O=C(O)Cc1csc(-c2ccc(F)c(F)c2)n1	202 to 204
CCc1c(-c2ccncc2)n[nH]c1N	154 to 156
Cc1cc(CN)cc(C)c1O	99 to 101
NCc1ccc(CN2CCC(O)CC2)cc1	128 to 130
CC(=O)N1CCN(Cc2ccc(C(=O)O)cc2)CC1	229 to 231
Cc1cc(CCC(=O)O)ccc1Br	89 to 91
CC1(C)Nc2ccccc2NC1=O	179 to 181
CCCCCNC1=NCC(c2ccccc2)S1 (centres undefined)	66 to 68
O=C(O)c1cnc2ccc(Br)cn2c1=O	218 to 220
O=C(O)CCc1nc2cc(Br)ccc2s1	154 to 156
CC(=O)Nc1ccc(C(=O)CCl)c(F)c1	128 to 130
O=C(CCl)NC1CCC(C(F)(F)F)CC1 (centres undefined)	65 to 67
O=C(O)c1ccc(-n2ccnc2)nn1	238 to 240
O=C(O)CCCNS(=O)(=O)c1ccc(Cl)c(Cl)c1	123 to 125
CC1CC(C(F)(F)F)c2c(n(C)[nH]c2=O)N1 (centres undefined)	202 to 204
CC(C)(C)c1cc(C(=O)O)cc(C(=O)O)c1	300 to 302
Cc1cc(C(=O)O)c2c(C)noc2n1	233 to 235
O=C(O)C1CCCSC1 (centres undefined)	76 to 78
N#Cc1ccc(Cl)cc1NCc1ccccn1	100 to 102
CCN(CC)S(=O)(=O)c1cccc(-c2nnc(S)o2)c1	95 to 101

SMILES	melting point [°C]
CC(C)(C)NS(=O)(=O)c1cc(N)c(F)cc1F	109 to 111
Cc1cccc(I)c1C(=O)O	116 to 118
CC(C)Cn1[nH]c(CC(=O)O)cc1=O	164 to 166
O=C(O)C1CCN(c2ccc(F)cc2)C1=O (centres undefined)	145 to 147
CC(C)C(N)=S	42 to 44
Cc1ccc(C(C)C)c(OC(C)C(=O)O)c1 (centres undefined)	61 to 63
COc1cc(-c2noc(CCl)n2)ccc1OC(F)F	46 to 50
Oc1nnc(-c2ccccc2)c(-c2ccccc2)n1	222 to 224
Cc1nc(N(C)C)sc1C=O	116 to 118
CC(=O)c1nc2ccc(C)cc2[nH]1	156 to 158
COc1ccc(N)cc1-n1nnnc1C	130 to 132
O=C(O)c1ccc(NC(=O)c2cccc(Br)c2)cc1	271 to 273
Cc1ccn2c(N)c(-c3ccc(F)cc3)nc2c1	188 to 190
NC(=S)c1ccn[nH]1	183 to 185
O=C(O)C1CCN(c2cncc3nnnn23)CC1	159 to 161
CC(C)c1nc(C(=O)O)cs1	56 to 58
CNc1ncc(C(=O)OC)s1	115 to 117
O=C(O)Cc1csc(N2CCCNC2=O)n1	184 to 186
O=C(c1cccnc1)c1c[nH]c2ccccc12	212 to 214
COc1ccc(Br)cc1C(=O)O	112 to 114

SMILES	melting point [°C]
O=C(O)CN1N=C(C(F)(F)F)CC1=O	218 to 220
O=C(NCCc1ccccc1)n1ccnc1	103 to 105
Cn1ccnc1Sc1ccc(N)cc1	117 to 119
CCCCc1ccc(NC(=O)/C=N/O)cc1	120 to 122
CCc1ccc(C(C)(C)C(=O)O)cc1	52 to 54
Cc1[nH]n(C)c(=N)c1C	109 to 111
NCc1ccc(N2CCC(O)CC2)c(F)c1	104 to 106
CC(C)(C)c1nccc(N)n1	64 to 66
Cc1ccc(Br)cc1N1CCCS1(=O)=O	144 to 146
CC(C)NC(=O)C(C)Cl (centres undefined)	89 to 91
COC(=O)c1nc2n(n1)-c1ccccc1S(=O)(=O)N2	262 to 264
OCc1nccc(Cl)c1Cl	59 to 61
COc1ccc(Br)c(-c2nnn[nH]2)c1	209 to 211
Cc1ccc(S(N)(=O)=O)c(C)c1	139 to 141
CCc1noc2ncc(C(=O)O)cc12	193 to 195
COc1ccc2[nH]cc(C3CCNCC3)c2c1	169 to 171
O=C(O)c1cnn(CCCl)c1	147 to 149
NS(=O)(=O)c1ccc2c(c1)C(=O)C(=O)N2	258 to 260
O=C1CSc2ccncc2N1	203 to 205
O=C1COc2cccc(F)c2N1	172 to 174

Further lines, results first:

melting point [°C]	SMILES
269 to 271	O=C(Nc1ccc(C(=O)O)c(O)c1)c1cc(F)cc(F)c1
104 to 106	COC1CCN(C(=O)Nc2cccc(C(C)=O)c2)CC1
200 to 202	Cc1ccccc1-c1nnc(Cl)n1-c1ccccc1C
117 to 119	O=C(O)CCc1ccc(-c2ccccc2F)o1
263 to 265	CCn1c(CCC(=O)O)nc2cc(S(N)(=O)=O)ccc21
222 to 224	CC(C)(C)C(=O)Nc1nc(CC(=O)O)cs1
214 to 216	O=C1Nc2ccc(-c3ccccc3)cc2C1=O
166 to 168	Clc1ncnc2ccc(Br)cc12
118 to 120	NCC(=O)Nc1ccccc1-n1cncn1
197 to 199	NS(=O)(=O)c1ccc2c(c1)OCCO2
260 to 262	Cn1cc(-c2cncc(C(=O)O)c2)cn1
55 to 57	COc1ccccc1OCc1ccccc1N
88 to 90	NCCNS(=O)(=O)Cc1ccccc1
84 to 86	COc1ccc2c(c1)CCCC2CC(=O)O (centres undefined)
114 to 116	CN(CC(=O)O)C(=O)c1ccc(Br)s1
105 to 107	Cc1ccc2ncc(C=O)n2c1
213 to 215	CC(C)(C)c1ccc(-c2nnc(N)[nH]2)cc1
79 to 81	COC(=O)c1cc(N)cc(I)c1
220 to 222	Cc1cc(Cl)n2ncnc2n1
138 to 140	O=C(O)Cc1cccc(OCc2ccncc2)c1
66 to 70	CCc1cccc(OCC(=O)O)c1
201 to 203	Cc1ccc(NCCC(=O)O)nc1

melting point [°C]	SMILES
179 to 181	Cc1c(C(=O)O)nnn1-c1cccc(Cl)c1
164 to 166	COC(=O)C(=O)CC(=O)c1ccc(N2CCOCC2)cc1
106 to 108	O=C(O)COc1ccc(Br)cc1F
217 to 219	CCC(=O)Nc1ccc(O)c(C(=O)O)c1
194 to 196	O=C(O)c1cc(Cl)c2cc(Cl)ccc2n1
164 to 166	COc1ccc(S(=O)(=O)N2CCC(=NO)CC2)cc1
37 to 39	O=C(CCl)Cc1c(F)cccc1Cl
173 to 175	O=C1NC(=O)C(c2ccc(F)c(Br)c2)N1 (centres undefined)
142 to 144	CS(=O)(=O)c1ccc(CNC(=O)CCl)cc1
154 to 156	O=C(O)CNC(=O)c1cc(F)cc(F)c1
269 to 271	Brc1cnc2nc3ccccc3n2c1
50 to 52	COC(=O)c1c(Cl)ncnc1Cl
80 to 82	COCCOc1cccc(C(=O)O)c1
48 to 50	COC1(OC)CC(CO)(CO)C1
108 to 110	O=C(O)COc1cccc(Br)c1
57 to 59	CN(C)S(=O)(=O)c1ccccc1C#N
103 to 105	CC(C)(C)OC(=O)N1CCC(Oc2ccccc2)(C(=O)O)CC1
170 to 172	CCOC(=O)c1ccc(S(=O)(=O)N2CCC(C(=O)O)CC2)o1
58 to 60	Nc1cccc(Sc2ccc(Cl)cc2)c1
43 to 45	Cc1ccc(S(=O)(=O)OCC2CCCO2)cc1 (centres undefined)
59 to 61	O=C(NCCc1ccccn1)OCC(F)(F)F
38 to 40	CC=Cc1ccc(OCCCC(=O)OC)c(OC)c1
